How the values were obtained:
[1] = biological target: 5-hydroxytryptamine receptor 2B (Homo sapiens, UniProt P41595); assay type: cell membranes, CHO-K1, Membrane; settings: cho-k1; further: in other assays of this panel Not Active means under 50% inhibition at 10 µM
[2] = biological target: T1, 5-hydroxytryptamine receptor 1A (Rattus norvegicus, UniProt P19327); assay type: cell membranes, CHO-K1, Membrane; further: in other assays of this panel Not Active means under 50% inhibition at 10 µM
T1 sequence (P19327 whole entry): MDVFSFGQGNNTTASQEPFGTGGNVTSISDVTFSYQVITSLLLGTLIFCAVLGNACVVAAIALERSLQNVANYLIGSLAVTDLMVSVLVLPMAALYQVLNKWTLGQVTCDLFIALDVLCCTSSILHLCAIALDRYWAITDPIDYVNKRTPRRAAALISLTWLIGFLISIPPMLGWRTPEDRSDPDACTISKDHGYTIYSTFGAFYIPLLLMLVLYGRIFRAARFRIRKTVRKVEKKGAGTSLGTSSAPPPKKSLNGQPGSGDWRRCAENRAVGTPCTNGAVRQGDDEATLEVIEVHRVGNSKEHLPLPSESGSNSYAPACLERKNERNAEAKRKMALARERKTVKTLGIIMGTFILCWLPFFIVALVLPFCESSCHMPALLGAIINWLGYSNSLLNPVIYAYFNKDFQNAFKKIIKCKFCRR

[3] = biological target: T2, 3-hydroxy-3-methylglutaryl-coenzyme A reductase (Homo sapiens, UniProt P04035); design: species or system Escherichia coli;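 further: enzyme inhibition assay of HMG-CoA reductase using radiolabeled [14C]HMG-CoA as substrate; in other assays of this panel Not Active means under 50% inhibition at 10 µM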
T2 sequence (P04035 whole entry): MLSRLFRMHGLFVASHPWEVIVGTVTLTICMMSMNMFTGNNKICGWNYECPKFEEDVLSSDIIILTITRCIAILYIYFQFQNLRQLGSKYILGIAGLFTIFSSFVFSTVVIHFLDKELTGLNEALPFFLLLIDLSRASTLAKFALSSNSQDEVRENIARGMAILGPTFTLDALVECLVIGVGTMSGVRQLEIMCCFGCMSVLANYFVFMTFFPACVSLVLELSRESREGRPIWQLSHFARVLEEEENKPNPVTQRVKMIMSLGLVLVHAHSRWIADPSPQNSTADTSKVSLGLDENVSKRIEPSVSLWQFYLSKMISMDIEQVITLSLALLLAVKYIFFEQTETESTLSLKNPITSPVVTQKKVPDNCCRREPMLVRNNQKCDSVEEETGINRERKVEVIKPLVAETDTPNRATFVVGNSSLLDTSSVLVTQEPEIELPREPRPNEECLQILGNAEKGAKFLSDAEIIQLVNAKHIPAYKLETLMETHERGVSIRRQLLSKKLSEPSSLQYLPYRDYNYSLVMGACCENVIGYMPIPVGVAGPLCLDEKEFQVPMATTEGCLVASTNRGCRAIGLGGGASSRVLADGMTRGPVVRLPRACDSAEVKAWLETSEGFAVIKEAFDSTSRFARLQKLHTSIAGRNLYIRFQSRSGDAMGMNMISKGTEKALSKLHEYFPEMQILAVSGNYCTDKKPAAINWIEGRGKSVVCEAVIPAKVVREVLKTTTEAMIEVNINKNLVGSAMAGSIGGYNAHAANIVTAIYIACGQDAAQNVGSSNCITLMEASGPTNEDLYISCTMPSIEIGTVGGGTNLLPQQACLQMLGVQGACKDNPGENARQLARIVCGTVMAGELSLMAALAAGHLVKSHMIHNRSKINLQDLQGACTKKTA

[4] = biological target: Carbonic anhydrase 2 (Homo sapiens, UniProt P00918); test: DRUGMATRIX: Carbonic Anhydrase II enzyme inhibition (substrate: 4-Nitrophenyl acetate (4-NPA)); assay type: tissue-based, Erythrocyte; settings: erythrocyte; Not Active = under 50% inhibition at 10 µM
[5] = biological target: Melanocortin receptor 3 (Homo sapiens, UniProt P41968); assay type: cell membranes, HEK293, Membrane; settings: hek293; further: in other assays of this panel Not Active means under 50% inhibition at 10 µM
Melanocortin receptor 3, sequence (P41968 whole entry): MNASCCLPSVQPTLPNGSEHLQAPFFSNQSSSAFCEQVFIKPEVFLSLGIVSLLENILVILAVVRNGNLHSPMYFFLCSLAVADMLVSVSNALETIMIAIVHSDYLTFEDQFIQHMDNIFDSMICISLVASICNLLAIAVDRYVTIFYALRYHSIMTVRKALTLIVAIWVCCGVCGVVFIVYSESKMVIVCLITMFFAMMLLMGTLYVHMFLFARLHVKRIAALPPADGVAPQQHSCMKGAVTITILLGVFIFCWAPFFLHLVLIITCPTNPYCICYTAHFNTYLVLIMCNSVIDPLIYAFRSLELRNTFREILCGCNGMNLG

[6] = biological target: T3, Cytochrome P450 1A2 (Homo sapiens, UniProt P05177); settings: bti-tn-5b1-4; further: in other assays of this panel Not Active means under 50% inhibition at 10 µM
T3 sequence (P05177 whole entry): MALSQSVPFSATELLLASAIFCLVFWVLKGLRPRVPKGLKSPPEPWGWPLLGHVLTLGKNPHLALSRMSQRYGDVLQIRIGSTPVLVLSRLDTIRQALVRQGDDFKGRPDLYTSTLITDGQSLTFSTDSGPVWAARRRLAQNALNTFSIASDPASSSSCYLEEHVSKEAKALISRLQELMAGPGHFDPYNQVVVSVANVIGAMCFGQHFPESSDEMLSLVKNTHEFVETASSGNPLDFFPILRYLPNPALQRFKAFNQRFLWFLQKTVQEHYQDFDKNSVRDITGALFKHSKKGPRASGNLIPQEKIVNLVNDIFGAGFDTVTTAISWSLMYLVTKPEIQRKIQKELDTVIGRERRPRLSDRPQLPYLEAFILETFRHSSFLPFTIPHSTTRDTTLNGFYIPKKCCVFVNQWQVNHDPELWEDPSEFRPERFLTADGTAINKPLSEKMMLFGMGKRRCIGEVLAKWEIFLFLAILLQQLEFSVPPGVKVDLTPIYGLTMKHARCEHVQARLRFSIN

5-hydroxytryptamine receptor 2B, sequence (P41595 whole entry): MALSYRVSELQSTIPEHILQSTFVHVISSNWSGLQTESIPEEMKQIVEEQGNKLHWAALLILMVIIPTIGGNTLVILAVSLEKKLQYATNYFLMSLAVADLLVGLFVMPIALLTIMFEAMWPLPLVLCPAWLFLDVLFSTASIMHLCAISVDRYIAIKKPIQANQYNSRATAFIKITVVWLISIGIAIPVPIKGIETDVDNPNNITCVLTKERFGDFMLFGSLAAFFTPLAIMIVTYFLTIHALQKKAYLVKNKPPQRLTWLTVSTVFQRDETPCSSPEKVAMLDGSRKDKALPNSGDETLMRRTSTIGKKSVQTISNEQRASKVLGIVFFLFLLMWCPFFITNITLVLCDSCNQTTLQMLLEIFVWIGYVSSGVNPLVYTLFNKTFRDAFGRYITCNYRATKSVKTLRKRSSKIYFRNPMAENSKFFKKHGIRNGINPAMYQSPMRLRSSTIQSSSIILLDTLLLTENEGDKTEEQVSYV

Row | Compound | IC50 [1] | IC50 ([2]; cho-k1) | IC50 [3] | IC50 [4] | IC50 [5] | IC50 [6] | Ki [6] | Ki [1] | Ki ([2]; cho-k1) | Ki [3] | Ki [4] | Ki [5] | IC50 ([2]; read-out: IC50) | Ki ([2]; read-out: Ki)
1 | Nc1nc(F)nc2c1ncn2[C@@H]1O[C@H](CO)[C@@H](O)[C@@H]1O [FLUDARABINE] | Not Active | Not Active | Not Active | Not Active | Not Active | Not Active | Not Active |  |  |  |  |  |  | 
2 | CHROMIC CHLORIDE | Not Active | Not Active | Not Active | Not Active | Not Active | Not Active | Not Active | Not Active | Not Active | Not Active | Not Active | Not Active |  | 
3 | O=C(O)CO [GLYCOLIC ACID] | Not Active | Not Active | Not Active | Not Active | Not Active | Not Active | Not Active |  |  |  |  |  |  | 
4 | COC(=O)C[C@](O)(CCC(C)(C)O)C(=O)O[C@@H]1C(OC)=C[C@]23CCCN2CCc2cc4c(cc2[C@H]13)OCO4 [HARRINGTONINE] | Not Active | Not Active | Not Active | Not Active | Not Active | Not Active | Not Active |  |  |  |  |  |  | 
5 | CC12CCC(CC1=O)C2(C)C (stereo not drawn) [CAMPHOR] | Not Active | Not Active | Not Active | Not Active | Not Active | Not Active | Not Active |  |  |  |  |  |  | 
6 | CCN1CCN(C(=O)N[C@@H](C(=O)N[C@@H]2C(=O)N3[C@@H]2SC(C)(C)[C@@H]3C(=O)O)c2ccccc2)C(=O)C1=O [PIPERACILLIN] | Not Active | Not Active | Not Active | Not Active | Not Active | Not Active | Not Active |  |  |  |  |  |  | 
7 | C=CCO [ALLYL ALCOHOL] | Not Active | Not Active | Not Active | Not Active | Not Active | Not Active | Not Active |  |  |  |  |  |  | 
8 | O=C(O)CCc1nc(-c2ccccc2)c(-c2ccccc2)o1 [OXAPROZIN] | Not Active | Not Active | Not Active | Not Active | Not Active | Not Active | Not Active |  |  |  |  |  |  | 
9 | c1ccc2sc(SSc3nc4ccccc4s3)nc2c1 [BENZOTHIAZYL DISULFIDE] | Not Active |  | Not Active | Not Active | Not Active | Not Active | Not Active |  |  |  |  |  | 747 nM | 427 nM
10 | O=C1CN(/N=C/c2ccc([N+](=O)[O-])o2)C(=O)N1 [NITROFURANTOIN] | Not Active | Not Active | Not Active | Not Active | Not Active | Not Active | Not Active |  |  |  |  |  |  | 
11 | NCC(CC(=O)O)c1ccc(Cl)cc1 (stereo not drawn) [BACLOFEN] | Not Active | Not Active | Not Active | Not Active | Not Active | Not Active | Not Active |  |  |  |  |  |  | 
12 | OC[C@H]1O[C@@H]2O[C@H]3[C@H](O)[C@@H](O)[C@@H](O[C@H]4[C@H](O)[C@@H](O)[C@@H](O[C@H]5[C@H](O)[C@@H](O)[C@@H](O[C@H]6[C@H](O)[C@@H](O)[C@@H](O[C@H]7[C@H](O)[C@@H](O)[C@@H](O[C@H]8[C@H](O)[C@@H](O)[C@@H](O[C@H]1[C@H](O)[C@H]2O)O[C@@H]8CO)O[C@@H]7CO)O[C@@H]6CO)O[C@@H]5CO)O[C@@H]4CO)O[C@@H]3CO [BETADEX] | Not Active | Not Active | Not Active | Not Active | Not Active | Not Active | Not Active |  |  |  |  |  |  | 
13 | Cl.NC[C@H]1CC[C@H](C(=O)Oc2ccc(CCC(=O)O)cc2)CC1 [CETRAXATE HYDROCHLORIDE] | Not Active | Not Active | Not Active | Not Active | Not Active | Not Active | Not Active |  |  |  |  |  |  | 
14 | O=C(NCCN1CCOCC1)c1ccc(Cl)cc1 [MOCLOBEMIDE] | Not Active | Not Active | Not Active | Not Active | Not Active | Not Active | Not Active |  |  |  |  |  |  | 
15 | CARBOXYMETHYLCELLULOSE | Not Active | Not Active | Not Active | Not Active | Not Active | Not Active | Not Active | Not Active | Not Active | Not Active | Not Active | Not Active |  | 
16 | C[C@@H]1[C@H](O)[C@@H](C)/C=C/C=C/C=C/C=C/C=C/C=C/C=C/[C@H](O[C@@H]2O[C@H](C)[C@@H](O)[C@H](N)[C@@H]2O)C[C@@H]2O[C@](O)(C[C@@H](O)C[C@@H](O)[C@H](O)CC[C@@H](O)C[C@@H](O)CC(=O)O[C@H]1C)C[C@H](O)[C@H]2C(=O)O [AMPHOTERICIN B] | Not Active | Not Active | Not Active | Not Active | Not Active | Not Active | Not Active |  |  |  |  |  |  | 
17 | CCC1(c2ccccc2)C(=O)NC(=O)NC1=O [PHENOBARBITAL] | Not Active | Not Active | Not Active | Not Active | Not Active | Not Active | Not Active |  |  |  |  |  |  | 
18 | C=CCN1CC[C@]23c4c5ccc(O)c4O[C@H]2/C(=N/N=C2\CC[C@@]4(O)[C@H]6Cc7ccc(O)c8c7[C@@]4(CCN6CC=C)[C@H]2O8)CC[C@@]3(O)[C@H]1C5 [NALOXONAZINE] | Not Active | Not Active | Not Active | Not Active | Not Active | Not Active | Not Active |  |  |  |  |  |  | 
19 | CC(C)(C#N)c1cc(Cn2cncn2)cc(C(C)(C)C#N)c1 [ANASTROZOLE] | Not Active | Not Active | Not Active | Not Active | Not Active | Not Active | Not Active |  |  |  |  |  |  | 
20 | OC[C@H]1O[C@@H]2O[C@H]3[C@H](O)[C@@H](O)[C@@H](O[C@H]4[C@H](O)[C@@H](O)[C@@H](O[C@H]5[C@H](O)[C@@H](O)[C@@H](O[C@H]6[C@H](O)[C@@H](O)[C@@H](O[C@H]7[C@H](O)[C@@H](O)[C@@H](O[C@H]1[C@H](O)[C@H]2O)O[C@@H]7CO)O[C@@H]6CO)O[C@@H]5CO)O[C@@H]4CO)O[C@@H]3CO [ALFADEX] | Not Active | Not Active | Not Active | Not Active | Not Active | Not Active | Not Active |  |  |  |  |  |  | 
21 | POVIDONE | Not Active | Not Active | Not Active | Not Active | Not Active | Not Active | Not Active | Not Active | Not Active | Not Active | Not Active | Not Active |  | 
